Assay results reported in US8946453B2, “Chemical compounds” (Syngenta Participations AG, priority 2011, dated 2015).

Columns and labels:
[1] = system: Myzus persicae (Green Peach Aphid); assay: Activity against Myzus persicae on cabbage plants, feeding/residual contact, spray chamber; conditions: in Brassica oleracea, 144 h, read-out: activity against Myzus persicae
[2] = system: Myzus persicae (Green Peach Aphid); assay: Activity against Myzus persicae, mixed population, feeding/residual contact, preventive (sunflower leaf discs); conditions: foliar, 144 h, read-out: activity
[3] = system: Myzus persicae (Green Peach Aphid); assay: Activity against Myzus persicae, mixed population, systemic/feeding, curative (pea seedling roots in test solution); conditions: 144 h, read-out: activity

SMILES	melting point [°C]	pest or weed control at 200 ppm [1] [%]	pest or weed control at 400 ppm [2] [%]	pest or weed control at 400 ppm [3] [%]
CCOC(=O)OC1=C(c2cc(C)ccc2C)C(=O)NC1CC1CCS(=O)(=NC(=O)C(F)(F)F)CC1 (single isomer, unassigned) [Compound P1.6, carbonic acid 4-(2,5-dimethyl-phenyl)-5-oxo-2-[1-oxo-1-(2,2,2-trifluoro-acetylimino)-hexahydro-1λ^6-thiopyran-4-ylmethyl]-2,5-dihydro-1H-pyrrol-3-yl ester ethyl ester]	91 to 93			
CCOC(=O)OC1=C(c2cc(C)ccc2C)C(=O)NC1CC1CCS(=O)(=NC(=O)C(F)(F)F)CC1 (single isomer, unassigned) [Compound P1.7, carbonic acid 4-(2,5-dimethyl-phenyl)-5-oxo-2-[1-oxo-1-(2,2,2-trifluoro-acetylimino)-hexahydro-1λ^6-thiopyran-4-ylmethyl]-2,5-dihydro-1H-pyrrol-3-yl ester ethyl ester]	87 to 89			
CCOC(=O)OC1=C(c2cc(C)ccc2C)C(=O)NC1CC1CCN(OC)CC1 (stereo not drawn) [Compound P1.1, carbonic acid 4-(2,5-dimethyl-phenyl)-2-(1-methoxy-piperidin-4-ylmethyl)-5-oxo-2,5-dihydro-1H-pyrrol-3-yl ester ethyl ester]		≥ 80	> 80	
CCOC(=O)OC1=C(c2cc(C)ccc2C)C(=O)NC1CC1CCSCC1 (stereo not drawn) [Compound P1.2, carbonic acid 4-(2,5-dimethyl-phenyl)-5-oxo-2-(tetrahydro-thiopyran-4-ylmethyl)-2,5-dihydro-1H-pyrrol-3-yl ester ethyl ester]	75 to 76			
CCOC(=O)OC1=C(c2cc(C)ccc2C)C(=O)NC1CC1CCS(=O)(=O)CC1 (stereo not drawn) [Compound P1.3]	97 to 101			
CCOC(=O)OC1=C(c2cc(C)ccc2C)C(=O)NC1CC1CC[S+]([O-])CC1 (stereo not drawn) [Compound P1.4, carbonic acid 4-(2,5-dimethyl-phenyl)-5-oxo-2-(1-oxo-hexahydro-1λ^4-thiopyran-4-ylmethyl)-2,5-dihydro-1H-pyrrol-3-yl ester ethyl ester]	103 to 106			
CCOC(=O)OC1=C(c2cc(C)ccc2C)C(=O)NC1CC1CCS(=O)(=NC#N)CC1 (stereo not drawn) [Compound P1.5]			> 80	
CCOC(=O)OC1=C(c2cc(C)ccc2C)C(=O)NC1CC1CCS(=NC(=O)C(F)(F)F)CC1 (stereo not drawn) [Compound P1.8]	190 to 192			
CCOC(=O)OC1=C(c2cc(C)ccc2C)C(=O)NC1CC1CCS(=NC#N)CC1 (stereo not drawn) [Compound P1.9, carbonic acid 2-(1-cyanoimino-hexahydro-1λ^4-thiopyran-4-ylmethyl)-4-(2,5-dimethyl-phenyl)-5-oxo-2,5-dihydro-1H-pyrrol-3-yl ester ethyl ester]	103 to 105			
CCOC(=O)OC1=C(c2c(C)cc(C)cc2C)C(=O)NC1CC1CCN(OC)CC1 (stereo not drawn) [Compound P1.10]		≥ 80	> 80	> 80
CCOC(=O)OC1=C(c2cc(C)ccc2C)C(=O)NC1C1CCN(OC)CC1 (stereo not drawn) [Compound P1.11]		≥ 80		> 80
CCOC(=O)OC1=C(c2c(C)cc(C)cc2C)C(=O)NC1C1CCN(OC)CC1 (stereo not drawn) [Compound P1.12, carbonic acid ethyl ester 2-(1-methoxy-piperidin-4-yl)-5-oxo-4-(2,4,6-trimethyl-phenyl)-2,5-dihydro-1H-pyrrol-3-yl ester]		≥ 80	> 80	> 80
CCOC(=O)OC1=C(c2c(C)cc(C)cc2C)C(=O)N(C)C1CC1CCN(OC)CC1 (stereo not drawn) [Compound P1.13]		≥ 80	> 80	
CCOC(=O)OC1=C(c2c(C)cc(C)cc2C)C(=O)OC1CC1CCN(OC)CC1 (stereo not drawn) [Compound P1.14]		≥ 80		> 80
CCOC(=O)OC1=C(c2c(C)cc(C)cc2C)C(=O)OC1C1CCN(OC)CC1 (stereo not drawn) [Compound P1.15]		≥ 80	> 80	> 80
Cc1cc(C)c(C2=C(OC(=O)C(C)(C)C)C(CC3CCOCC3)OC2=O)c(C)c1 (stereo not drawn) [Compound P1.16]			> 80	

SMILES	melting point [°C]	pest or weed control at 200 ppm [1] [%]	pest or weed control at 400 ppm [2] [%]	pest or weed control at 400 ppm [3] [%]
CCOC(=O)OC1=C(c2c(C)cc(Cl)cc2C)C(=O)NC1C1CCN(OC)CC1 (stereo not drawn) [Compound P1.18]			> 80	
CCOC(=O)OC1=C(c2c(C)cc(Cl)cc2C)C(=O)NC1CC1CCN(OC)CC1 (stereo not drawn) [Compound P1.19]				> 80
Cc1cc(C)c(C2C(=O)NC(CC3CCOCC3)C2=O)c(C)c1 (stereo not drawn) [Compound P2.1]			> 80	
CON1CCC(CC2NC(=O)C(c3cc(C)ccc3C)=C2O)CC1 (stereo not drawn) [Compound P2.2, 3-(2,5-dimethyl-phenyl)-4-hydroxy-5-(1-methoxy-piperidin-4-ylmethyl)-1,5-dihydro-pyrrol-2-one]			> 80	
Cc1ccc(C)c(C2C(=O)NC(CC3CCOCC3)C2=O)c1 (stereo not drawn) [Compound P2.4]	114 to 116			
Cc1ccc(C)c(C2=C(O)C(CC3CCS(=O)(=O)CC3)NC2=O)c1 (stereo not drawn) [Compound P2.6, 3-(2,5-dimethyl-phenyl)-5-(1,1-dioxo-hexahydro-1λ^6-thiopyran-4-ylmethyl)-4-hydroxy-1,5-dihydro-pyrrol-2-one]	244 to 246			
Cc1ccc(C)c(C2C(=O)NC(CC3CCS(=O)(=NC#N)CC3)C2=O)c1 (stereo not drawn) [Compound P2.9]	189 to 191			
Cc1ccc(C)c(C2C(=O)NC(CC3CCN(C)CC3)C2=O)c1 (stereo not drawn) [Compound P2.10]	142 to 145			
Cc1cc(C)c(C2C(=O)NC(CC3CCN(C)CC3)C2=O)c(C)c1 (stereo not drawn) [Compound P2.11]	133 to 136			
CON1CCC(C2NC(=O)C(c3c(C)cc(C)cc3C)=C2O)CC1 (stereo not drawn) [Compound P2.12, 4-hydroxy-5-(1-methoxy-piperidin-4-yl)-3-(2,4,6-trimethyl-phenyl)-1,5-dihydro-pyrrol-2-one]	206 to 209			
CON1CCC(CC2NC(=O)C(c3c(C)cc(C)cc3C)C2=O)CC1 (stereo not drawn) [Compound P2.13]		≥ 80	> 80	> 80
CON1CCC(C2NC(=O)C(c3cc(C)ccc3C)C2=O)CC1 (stereo not drawn) [Compound P2.14]		≥ 80		
CON1CCC(CC2OC(=O)C(c3c(C)cc(C)cc3C)C2=O)CC1 (stereo not drawn) [Compound P2.16]		≥ 80	> 80	> 80
CON1CCC(C2OC(=O)C(c3c(C)cc(C)cc3C)C2=O)CC1 (stereo not drawn) [Compound P2.17]		≥ 80	> 80	> 80
CON1CCC(C2NC(=O)C(c3c(C)cc(Cl)cc3C)C2=O)CC1 (stereo not drawn) [Compound P2.21]		≥ 80	> 80	> 80
CON1CCC(CC2NC(=O)C(c3c(C)cc(Cl)cc3C)C2=O)CC1 (stereo not drawn) [Compound P2.22]		≥ 80	> 80	
